Experiment [1] concerns human iPSC cardiomyocytes. The experiment can be described thus: CiPA multielectrode array (MEA) assay, sodium spike. The class given is cell-based. Conditions: anti-DSG2 antibodies 0.5 μg/mL; lidocaine 10 μM; negative controls 0.5 g/mL as printed; 0 to 96 hours. The method, then:
To determine the effect of anti-DSG2 antibodies in cardiomyocytes, the cardiac in vitro proarrhythmia (CiPA) assay was performed (Sager et al. Am Heart J 2014; 167:292-300; the contents of which are herein incorporated by reference in its entirety). CiPA is envisioned to consist of four components: (1) an evaluation of the effects of test agents on cardiac ion channel assays; (2) in silico modeling of the cardiac action potential based on the ion channel results to integrate the data with cardiac function; (3) experimental measurement of test agent effects in human ventricular myocytes to confirm the modeling result; and (4) scoring the results. […] The sodium spike quantified below is a measurement of the specific sodium channel current in the cardiomyocyte and is also described in Blinova K, et al. Cell Rep. […] The parameters evaluated include measuring a change in the spike in the component of electrical signal propagation (e.g. sodium spike) and cell index—a function of cell impedance and cell number. […]
Commercially available anti-DSG2 antibodies were tested in the cardiomyocyte CiPA assay. […] The voltage (μV) is measured at time intervals of 0, 1 hour, 12 hours, 24 hours, 48 hours, 72 hours, and 96 hours. […]

For experiment [2], the system named is human iPSC-derived cardiomyocytes. The experiment can be described thus: CiPA multielectrode array (MEA) assay, cell index. It is filed as cell-based. The method, then:
To determine the effect of anti-DSG2 antibodies in cardiomyocytes, the cardiac in vitro proarrhythmia (CiPA) assay was performed (Sager et al. Am Heart J 2014; 167:292-300; the contents of which are herein incorporated by reference in its entirety). CiPA is envisioned to consist of four components: (1) an evaluation of the effects of test agents on cardiac ion channel assays; (2) in silico modeling of the cardiac action potential based on the ion channel results to integrate the data with cardiac function; (3) experimental measurement of test agent effects in human ventricular myocytes to confirm the modeling result; and (4) scoring the results. The multielectrode array (MEA) assay is a component of CiPA which uses human induced pluripotent stem cell (iPSC)-derived cardiomyocytes to evaluate two-dimensional excitation propagation by recording spontaneous ECG-like field potentials. The sodium spike quantified below is a measurement of the specific sodium channel current in the cardiomyocyte and is also described in Blinova K, et al. Cell Rep. 2018 Sep. 25; 24(13):3582-3592 (the contents of which are herein incorporated by reference in its entirety). CiPA is considered a clinically validated cardiomyocyte-based assay by the FDA and the EMA. […] The parameters evaluated include measuring a change in the spike in the component of electrical signal propagation (e.g. sodium spike) and cell index—a function of cell impedance and cell number. Changes in sodium spike may be indicative of arrhythmia and a change in cell index (CI) may be indicative of changes to cell connectivity.
Cell index is inversely related the cell layer's conductivity to electrical current. Increased conductivity across the cell layer, may indicate that there are more gaps in the cell layer, implying that the cells are less well-adhered to each other. Thus, increased conductivity across the cell layer, may result in lower cell index. […] The concentration of anti-DSG2 antibodies varied from 0.00005 μg/mL to 5 μg/mL. […] The concentration of lidocaine varied from 3 μM to 100 μM. […] The concentration of anti-DSG2 antibodies varied from 0.00005 μg/mL to 5 μg/mL.

Experiment [3] concerns the target anti-DSG2 antibody. The experiment can be described thus: anti-DSG2 antibody MSD assay; inhibition of the antibody signal by the fusion polypeptide; antibody at 200 ng/mL.
Experiment [4] deals with anti-DSG2 antibody. Kind of experiment: anti-DSG2 antibody MSD assay; inhibition of the antibody signal by the fusion polypeptide; antibody at 1000 ng/mL.

For `CCN(CC)CC(=O)Nc1c(C)cccc1C` [Lidocaine, lidocaine], in experiment [1], the “effect on cardiomyocyte sodium spike (in words)” value was “dampen the sodium spike”. Also, the “Cell Index (+/- SEM)” value in experiment [2] (3 μM) is given as 19.9 (2.84); in experiment [2] (10 μM) it was 20.2 (3.1); in experiment [2] (30 μM) it was 18.7 (2.0); in experiment [2] (100 μM), 11.0 (4.8). Moreover, in experiment [2] (lidocaine 3 μM to 100 μM, antibodies 0.00005 μg/mL to 5 μg/mL), the “effect on cell index (in words)” value is “marked reduction in cell index and likely cell death”.

What is called % inhibition is how much of the control response was suppressed. Take “recombinant human desmoglein-2 Fc chimera protein, CF (DSG2FP#1) (Fc fusion)”: the values for the % inhibition in the experiment with anti-DSG2 antibody [3] and in the experiment with anti-DSG2 antibody [4] were 63.8% and 88.4%, respectively.
